Laboratory results as given in ChEMBL document CHEMBL4266014, “Development of Hybrid Phospholipid Mimics as Effective Agonists for Liver Receptor Homologue-1” (ACS Med Chem Lett, 2018).
Activity calls are given as the source filed them. The rule behind the calls is not given here.

Target: Nuclear receptor subfamily 5 group A member 2 (Homo sapiens) (UniProt O00482)
Assay: Agonist activity at recombinant full length human LRH1 expressed in HeLa cells up to 30 uM after 24 hrs by dual-glo luciferase reporter gene assay
Type: cell-based

Chain of Nuclear receptor subfamily 5 group A member 2 (Homo sapiens) (O00482 whole entry): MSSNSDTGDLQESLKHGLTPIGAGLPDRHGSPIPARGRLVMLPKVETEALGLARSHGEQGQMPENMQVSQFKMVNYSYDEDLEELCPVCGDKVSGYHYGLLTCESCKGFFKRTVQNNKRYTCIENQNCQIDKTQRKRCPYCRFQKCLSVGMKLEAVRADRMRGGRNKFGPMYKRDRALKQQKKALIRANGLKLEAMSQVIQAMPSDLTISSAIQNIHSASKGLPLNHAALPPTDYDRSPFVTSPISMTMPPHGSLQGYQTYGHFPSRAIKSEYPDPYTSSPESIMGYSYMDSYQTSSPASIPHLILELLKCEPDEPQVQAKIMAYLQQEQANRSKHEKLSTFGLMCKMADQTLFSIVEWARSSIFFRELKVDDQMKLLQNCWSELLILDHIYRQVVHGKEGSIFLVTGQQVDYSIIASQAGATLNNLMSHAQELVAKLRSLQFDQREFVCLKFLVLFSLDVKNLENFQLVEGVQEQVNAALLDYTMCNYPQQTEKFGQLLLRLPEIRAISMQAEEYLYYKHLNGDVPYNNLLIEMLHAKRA

Row | SMILES | Activity
1 | C=C(c1ccccc1)[C@@]12CC[C@@H](O)[C@@H]1CC(CCCC(=O)O)=C2c1ccccc1 (relative stereo) | inactive
2 | C=C(c1ccccc1)[C@@]12CC[C@@H](O)[C@@H]1CC(CCCCC(=O)O)=C2c1ccccc1 | inactive
3 | C=C(c1ccccc1)[C@@]12CC[C@@H](O)[C@@H]1CC(CCCCCCCOP(=O)([O-])OCC[N+](C)(C)C)=C2c1ccccc1 | inactive

The remaining lines, values ahead:

Row | Activity | SMILES
4 | inactive | C=C(c1ccccc1)[C@@]12CC[C@@H](O)[C@@H]1CC(CCCCCCOP(=O)([O-])OCC[N+](C)(C)C)=C2c1ccccc1
5 | inactive | C=C(c1ccccc1)[C@@]12CC[C@@H](O)[C@@H]1CC(CCCCCC(=O)O)=C2c1ccccc1 (relative stereo)
6 | inactive | C=C(c1ccccc1)[C@@]12CC[C@@H](O)[C@@H]1CC(CCCCCCCCOP(=O)([O-])OCC[N+](C)(C)C)=C2c1ccccc1
7 | inactive | C=C(c1ccccc1)[C@@]12CC[C@@H](O)[C@@H]1CC(CCCCCCC(=O)O)=C2c1ccccc1 (relative stereo)
